{"source": "patent US20090062302A1", "about": "“Jak2 Tyrosine Kinase Inhibition” (priority 2006, published 2009)", "test_system": "patients with JAK2 positive refractory MPD", "assay": "Clinical trial in patients with JAK2 positive refractory MPD", "type": "in vivo, human", "conditions": "one trial, eight patients"}
{"smiles": "Cc1cc(Nc2cc(N3CCN(C)CC3)nc(Sc3ccc(NC(=O)C4CC4)cc3)n2)n[nH]1", "note": "[Compound I, Cyclopropane carboxylic acid {4-[4-(4-methyl-piperazin-1-yl)-6-(5-methyl-2H-pyrazol-3-ylamino)-pyrimidin-2-ylsulphanyl]-phenyl}-amide]", "values": [{"measurement": "patients who achieved an objective response", "result": "six out of eight"}]}
